Test results from patent US9969776B2, “Drug conjugates for delivering compounds to senescent cells” (Unity Biotechnology, Inc., priority 2007, dated 2018).
“Also recorded” adds a separate entry of the source. Where two headings read alike, the source gives them in different places. Where no end group is shown, it is not given here.

Columns and labels:
[1] = 1×iv, mice; cited from earlier work
normal fibroblasts = test: Cell binding assay with radio-labeled peptide
Experimental: (§1) A senescent cell binding agent (SEQ ID NO:1) was conjugated at its C terminus to the linker sequence GGGC (SEQ ID NO:9) by synthesizing both as a single construct (i.e., SenC; SEQ ID NO:5). The purpose of attaching GGGC was that it can be used to chelate reduced 99m-Tc for radio-labeling. A 2 μL aliquot of conjugated senescent cell binding agent (3 M) was mixed with 40 μL of 0.25 M ammonium acetate, 15 μL of tartrate buffer pH 8.7, 4 μL of stannous chloride in 100 mM of sodium tartrate, and 30 μL of 99m-Tc pertechnetate. The mixture was heated for 25 minutes at 95° C. Quality control was performed with Sep-Pak and was always above 90% purity. A small aliquot was also injected on a Waters 600 HPLC to check the radiological profile. Fractions were collected and read on a gamma counter (Perkin-Elmer Wallac Wizard 1470).
(§2) Binding of radio-labeled SenC (SEQ ID NO:5) to senescent and non-senescent cells was tested by competition with unlabeled SenC. Peptide solutions were prepared to contain 0 or 20 μM of unlabeled SenC, 15 nM radio-labeled SenC, and 0.2% BSA. Chemically-induced senescent fibroblasts, their non-senescent counterparts, and prostate epithelial cells were prepared as above, harvested, and centrifuged. The cell pellets were resuspended in fresh media without FBS, and cells were counted. Peptide solution containing 0 or 20 μM unlabeled SenC and constant concentrations of SenC and 10^5 senescent cells were combined in a final volume of 200 μL of PBS in Eppendorf tubes and incubated for 4 hours. Cells were pelleted by centrifuging at 2500 rpm for 2 minutes and washed twice with PBS and 0.2% BSA. Pellets were suspended in 5 μL PBS and transferred to 12×75 mm tubes for counting radioactivity using a gamma counter (Perkin-Elmer Wallac Wizard 1470).

prostate epithelium = test: Cell binding assay with radio-labeled peptide
Experimental: as §1, §2

senescent cells = test: Cell binding assay with radio-labeled peptide
Experimental: as §1, §2

senescent fibroblasts [2] = test: Cytotoxicity, LDH release (CytoTox-ONE); format: cell-based; conditions: 2 hours at 37° C.
[3] = tested on: non-senescent fibroblasts; test: Cytotoxicity, LDH release (CytoTox-ONE); format: cell-based; conditions: 2 hours at 37° C.
[4] = tested on: prostate epithelial cells (RWPE-1); test: Cytotoxicity, LDH release (CytoTox-ONE); format: cell-based; conditions: immortalized prostate epithelial cells RWPE-1, 2 hours at 37° C.
[5] = tested on: immortalized prostate epithelial cells; test: Cell Proliferation Assay WST-1; format: cell-based
Experimental: (§3) Cell proliferation was assayed using the Cell Proliferation Reagent WST-1 (Roche, Mannheim, Germany) by following the manufacturer's instructions.

[6] = tested on: non-senescent fibroblasts; test: Cell Proliferation Assay WST-1; format: cell-based
Experimental: as §3

senescent fibroblasts [7] = test: Cell Proliferation Assay WST-1; format: cell-based
Experimental: as §3

[8] = cited from earlier work
[9] = absence of unlabeled peptide, 15 nM radio-labeled SenC, 4 hours
[10] = presence of 20 μM unlabeled SenC

CC[C@@]1(O)C(=O)OCc2c1cc1n(c2=O)Cc2cc3c(CN(C)C)c(O)ccc3nc2-1 [topotecan]
LD1Omice [1]: 75 mg/m^2

radio-labeled SenC: SenC (SEQ ID NO:5) radio-labeled with 99m-Tc chelated by GGGC (GVYHFAPLTPTPGGGC; also: 99mTc chelated by GGGC)
specificity of binding (absence vs. presence of unlabeled SenC) (normal fibroblasts): nonspecific
bound peptide, average (normal fibroblasts; [9]): 0.08 % of added dose
bound peptide, average (normal fibroblasts; [10]): 0.09 % of added dose
specificity of binding (absence vs. presence of unlabeled SenC) (prostate epithelium): nonspecific
bound peptide, average (prostate epithelium; [9]): 0.06 % of added dose
bound peptide, average (prostate epithelium; [10]): 0.06 % of added dose
specificity of binding (absence vs. presence of unlabeled SenC) (senescent cells): specific binding
bound peptide, average (senescent cells; [9]): 0.32 % of added dose
bound peptide, average (senescent cells; [10]): 0.25 % of added dose

GVYHFAPLTPTPGGGSKFAKFAKKFAKFAK (GVYHFAPLTPTPGGSKFAKFAKKFAKFAK) [SenL]
cell death (percentage of cells killed) (senescent fibroblasts [2]): dose-dependent cell death at a significantly higher rate than either non-senescent fibroblasts or prostate epithelial cells
cell death (percentage of cells killed) [3]: some cytotoxicity is observed
cell death (percentage of cells killed) [4]: no cell death at all; also recorded: No cell death was observed
cell proliferation (WST-1, metabolic activity) [5]: no change in cell proliferation; also recorded: no significant effect on metabolic activity
cell proliferation (WST-1, metabolic activity) [6]: no change in cell proliferation; also recorded: no significant effect on metabolic activity
cell proliferation (WST-1, metabolic activity) (senescent fibroblasts [7]): no change in cell proliferation; also recorded: no significant effect on metabolic activity

CC[C@]1(O)C[C@@H]2CN(CCc3c([nH]c4ccccc34)[C@@](C(=O)OC)(c3cc4c(cc3OC)N(C)[C@H]3[C@@](O)(C(=O)OC)[C@H](OC(C)=O)[C@]5(CC)C=CCN6CC[C@]43[C@@H]65)C2)C1 [vinblastine]
MTD ([8]; escalating): 3.3-11.1 mg/m^2
MTD ([8]; rarely to): 18.5 mg/m^2
